target: T1, CRF1 receptors (Homo sapiens, UniProt P34998); experiment: CRF1 receptor radioligand binding assay ([125I]-oCRF competition, IMR-32 cell membranes); settings: IMR-32 cell membranes, [125I]-oCRF 100 pM; read-out: Ki (CRF-1R)
T1 construct: endogenous in cells; host or cells: IMR-32 cells, transformed with 2.5 µM 5'-bromo-2'-deoxyuridine for 10 days; membrane preparation
T1 sequence (P34998 24-415): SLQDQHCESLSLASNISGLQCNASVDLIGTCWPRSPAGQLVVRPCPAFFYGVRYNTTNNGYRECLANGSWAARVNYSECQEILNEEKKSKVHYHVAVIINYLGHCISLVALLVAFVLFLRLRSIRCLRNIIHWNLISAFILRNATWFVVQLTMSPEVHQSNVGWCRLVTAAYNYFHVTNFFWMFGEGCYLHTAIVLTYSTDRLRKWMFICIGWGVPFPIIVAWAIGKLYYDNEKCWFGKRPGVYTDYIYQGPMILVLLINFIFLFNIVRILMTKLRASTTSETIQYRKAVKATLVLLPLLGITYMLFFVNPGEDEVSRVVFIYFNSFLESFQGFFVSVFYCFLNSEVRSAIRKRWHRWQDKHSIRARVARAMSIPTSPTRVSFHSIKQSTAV
Experimental: CRF1 receptor antagonists, by occupying the same receptors, blocks the accessibility of the receptors to CRF, a hypothalamic factor mediating body's responses to physiological and psychological stress. The following radioligand binding assay examines the ability of the antagonists to bind the CRF1 receptors by assessing their ability to compete with binding of CRF to the receptors in cell membrane.
Tissue culture and membrane preparation. IMR-32 cells were grown at 37° C. in 5% CO2 as a monolayer in medium consisting of MEM supplemented with 10% heat-inactivated fetal bovine serum, 0.1 mM nonessential amino acids, 1 mM sodium pyruvate and 2 mM L-glutamine. […] After transformation, cells were rinsed twice with phosphate-buffered saline, and incubated for 10–15 min. at 4° C. in homogenization buffer consisting of 50 mM Tris (pH 7.2), 10 mM MgCl2 and 2 mM EGTA. Cells were transferred from plates to polypropylene tubes (16×100 mm), homogenized and centrifuged at 32,000×g for 15 min. Pellets were resuspended by homogenization in buffer and centrifuged at 32,000×g for 15 min. Pellets were resuspended in homogenization buffer then stored at −80° C. until needed.
Radioligand binding assays. […] The assay buffer consisted of 50 mM Tris (pH 7.2), 10 mM MgCl2, 0.5% BSA, 0.005% Triton X-100, 10 μg/mL aprotinin and 10 μg/mL leupeptin. Assays were stopped by addition of ice-cold wash buffer (50 mM Tris, pH 7.4 and 0.2% BSA). Filtration over glass fiber filters (Whatman GF/B) previously soaked in 50 mM Tris, pH 7.2 and 1% BSA was carried out using a Brandel cell harvester. Filters were washed with 10 mL of ice-cold wash buffer. Non-specific binding was defined with 10 μM oCRF. IC50 values for oCRF and test compounds were calculated by nonlinear regression using a one-site binding curve (GraphPad Prism).

Row | SMILES | Ki
1 | CCCN(CC1CC1)C(=O)c1c(C(F)(F)F)nc2n1CCCN2c1c(C)cc(C)cc1C [Example 55, 2-Trifluoromethyl-8-(2,4,6-trimethyl-phenyl)-5,6,7,8-tetrahydro-imidazo[1,2a]pyrimidine-3-carboxylic acid cyclopropylmethyl-propyl-amide] | < 10000 nM
2 | CCCN(CCc1ccccc1)C(=O)c1c(C)nc2n1CCCN2c1c(C)cc(C)cc1C [Example 56, 2-Methyl-8-(2,4,6-trimethyl-phenyl)-5,6,7,8-tetrahydro-imidazo[1,2-a]pyrimidine-3-carboxylic acid phenethyl-propyl-amide] | < 10000 nM
3 | CCCN(CC1CCC1)C(=O)c1c(C)nc2n1CCCN2c1c(C)cc(C)cc1C [Example 57, 2-Methyl-8-(2,4,6-trimethyl-phenyl)-5,6,7,8-tetrahydro-imidazo[1,2-a]pyrimidine-3-carboxylic acid cyclobutylmethyl-propyl-amide] | < 10000 nM
4 | Cc1cc(C)c(N2CCCn3c2nc(C(F)(F)F)c3CN2CC=CCC2)c(C)c1 [Example 60, 3-(3,6-Dihydro-2H-pyridin-1-ylmethyl)-2-trifluoromethyl-8-(2,4,6-trimethyl-phenyl)-5,6,7,8-tetrahydro-imidazo[1,2-a]pyrimidine] | < 1000 nM
5 | Cc1cc(C)c(N2CCCn3c2nc(C(F)(F)F)c3CN2CCCCC2C)c(C)c1 (centres unmarked) [Example 63, 3-(2-Methyl-piperidin-1-ylmethyl)-2-trifluoromethyl-8-(2,4,6-trimethyl-phenyl)-5,6,7,8-tetrahydro-imidazo[1,2-a]pyrimidine] | < 1000 nM
6 | C=CCN(CC=C)Cc1c(C(F)(F)F)nc2n1CCCN2c1c(C)cc(C)cc1C [Example 67, Diallyl-[2-trifluoromethyl-8-(2,4,6-trimethyl-phenyl)-5,6,7,8-tetrahydro-imidazo[1,2-a]pyrimidin-3-ylmethyl]-amine] | < 100 nM
7 | C=C(C)CN(CC)Cc1c(C(F)(F)F)nc2n1CCCN2c1c(C)cc(C)cc1C [Example 71, Ethyl-(2-methyl-allyl)-[2-trifluoromethyl-8-(2,4,6-trimethyl-phenyl)-5,6,7,8-tetrahydro-imidazo[1,2-a]pyrimidin-3-ylmethyl]-amine] | < 100 nM
8 | Cc1cc(C)c(N2CCCn3c2nc(C(F)(F)F)c3CN(CC2CC2)CC(F)(F)C(F)(F)F)c(C)c1 [Example 74, Cyclopropylmethyl-(2,2,3,3,3-pentafluoro-propyl)-[2trifluoromethyl-8-(2,4,6-trimethyl-phenyl)-5,6,7,8-tetrahydro-imidazo[1,2-a]pyrimidin-3-ylmethyl]-amine] | < 100 nM
9 | CCN(Cc1c(C(F)(F)F)nc2n1CCCN2c1c(C)cc(C)cc1C)CC1CC1 [Example 75, Cyclopropylmethyl-ethyl-[2-trifluoromethyl-8-(2,4,6-trimethyl-phenyl)-5,6,7,8-tetrahydro-imidazo[1,2-a]pyrimidin-3-ylmethyl]-amine] | < 100 nM
10 | Cc1cc(C)c(N2CCCn3c2nc(C(F)(F)F)c3CN(CC2CCC2)CC(F)(F)F)c(C)c1 [Example 76, Cyclobutylmethyl-(2,2,2-trifluoro-ethyl)-[2-trifluoromethyl-8-(2,4,6-trimethyl-phenyl)-5,6,7,8-tetrahydro-imidazo[1,2-a]pyrimidin-3-ylmethyl]-amine] | < 100 nM
11 | CCCN(Cc1c(C(F)(F)F)nc2n1CCCN2c1c(C)cc(C)cc1C)CC1CCC1 [Example 77, Cyclobutylmethyl-propyl-[2-trifluoromethyl-8-(2,4,6-trimethyl-phenyl)-5,6,7,8-tetrahydro-imidazo[1,2-a]pyrimidin-3-ylmethyl]-amine] | < 100 nM
12 | CCCN(CCC(F)(F)F)Cc1c(C(F)(F)F)nc2n1CCCN2c1c(C)cc(C)cc1C [Example 78, Propyl-[2-trifluoromethyl-8-(2,4,6-trimethyl-phenyl)-5,6,7,8-tetrahydro-imidazo[1,2-a]pyrimidin-3-ylmethyl]-(3,3,3-trifluoro-propyl)-amine] | < 1000 nM

Further lines, results first:

Row | Ki | SMILES
13 | < 10000 nM | Cc1cc(C)c(N2CCCn3c2nc(C)c3C(=O)N(CC2CC2)CC2CC2)c(C)c1 [Example 58, 2-Methyl-8-(2,4,6-trimethyl-phenyl)-5,6,7,8-tetrahydro-imidazo[1,2-a]pyrimidine-3-carboxylic acid bis-cyclopropylmethyl-amide]
14 | < 100 nM | CCCN(Cc1c(C(F)(F)F)nc2n1CCCN2c1c(C)cc(C)cc1C)CC1CC1 [Example 59, Cyclopropylmethyl-propyl-[2-trifluoromethyl-8-(2,4,6-trimethyl-phenyl)-5,6,7,8-tetrahydro-imidazo[1,2-a]pyrimidin-3-ylmethyl]-amine]
15 | < 1000 nM | Cc1cc(C)c(N2CCCn3c2nc(C(F)(F)F)c3CN2CCSCC2)c(C)c1 [Example 61, 3-Thiomorpholin-4-ylmethyl-2-trifluoromethyl-8-(2,4,6-trimethyl-phenyl)-5,6,7,8-tetrahydro-imidazo[1,2-a]pyrimidine]
16 | < 1000 nM | Cc1cc(C)c(N2CCCn3c2nc(C(F)(F)F)c3CN2CCCCC2)c(C)c1 [Example 62, 3-Piperidin-1-ylmethyl-2-trifluoromethyl-8-(2,4,6-trimethyl-phenyl)-5,6,7,8-tetrahydro-imidazo[1,2-a]pyrimidine]
17 | < 1000 nM | Cc1cc(C)c(N2CCCn3c2nc(C(F)(F)F)c3CN2CCC(C)CC2)c(C)c1 [Example 64, 3-(4-Methyl-piperidin-1-ylmethyl)-2-trifluoromethyl-8-(2,4,6-trimethyl-phenyl)-5,6,7,8-tetrahydro-imidazo[1,2-a]pyrimidine]
18 | < 1000 nM | Cc1cc(C)c(N2CCCn3c2nc(C(F)(F)F)c3CN(C)Cc2ccccc2)c(C)c1 [Example 65, Benzyl-methyl-[2-trifluoromethyl-8-(2,4,6-trimethyl-phenyl)-5,6,7,8-tetrahydro-imidazo[1,2-a]pyrimidin-3-ylmethyl]-amine]
19 | < 1000 nM | Cc1cc(C)c(N2CCCn3c2nc(C(F)(F)F)c3CN(C)CCc2ccccc2)c(C)c1 [Example 66, Methyl-phenethyl-[2-trifluoromethyl-8-(2,4,6-trimethyl-phenyl)-5,6,7,8-tetrahydro-imidazo[1,2-a]pyrimidin-3-ylmethyl]-amine]
20 | < 1000 nM | CCCN(CCC)Cc1c(C(F)(F)F)nc2n1CCCN2c1c(C)cc(C)cc1C [Example 68, Dipropyl-[2-trifluoromethyl-8-(2,4,6-trimethyl-phenyl)-5,6,7,8-tetrahydro-imidazo[1,2-a]pyrimidin-3-ylmethyl]-amine]
21 | < 1000 nM | CCCCN(C)Cc1c(C(F)(F)F)nc2n1CCCN2c1c(C)cc(C)cc1C [Example 69, Butyl-methyl-[2-trifluoromethyl-8-(2,4,6-trimethyl-phenyl)-5,6,7,8-tetrahydro-imidazo[1,2-a]pyrimidin-3-ylmethyl]-amine]
22 | < 1000 nM | CCCCN(CC)Cc1c(C(F)(F)F)nc2n1CCCN2c1c(C)cc(C)cc1C [Example 70, Butyl-ethyl-[2-trifluoromethyl-8-(2,4,6-trimethyl-phenyl)-5,6,7,8-tetrahydro-imidazo[1,2-a]pyrimidin-3-ylmethyl]-amine]
23 | < 1000 nM | Cc1cc(C)c(N2CCCn3c2nc(C(F)(F)F)c3CN2CCC(c3ccccc3)C2)c(C)c1 (centres unmarked) [Example 72, 3-(3-Phenyl-pyrrolidin-1-ylmethyl)-2-trifluoromethyl-8-(2,4,6-trimethyl-phenyl)-5,6,7,8-tetrahydro-imidazo[1,2-a]pyrimidine]
24 | < 10 nM | Cc1cc(C)c(N2CCCn3c2nc(C(F)(F)F)c3CN(CC2CC2)CC(F)(F)F)c(C)c1 [Example 73, Cyclopropylmethyl-(2,2,2-trifluoro-ethyl)-[2-trifluoromethyl-8-(2,4,6-trimethyl-phenyl)-5,6,7,8-tetrahydro-imidazo[1,2-a]pyrimidin-3-ylmethyl]-amine]
25 | < 100 nM | CCCN(Cc1c(C(F)(F)F)nc2n1CCCN2c1c(C)cc(C)cc1C)CC(F)(F)F [Example 79, Propyl-(2,2,2-trifluoro-ethyl)-[2-trifluoromethyl-8-(2,4,6-trimethyl-phenyl)-5,6,7,8-tetrahydro-imidazo[1,2-a]pyrimidin-3-ylmethyl]-amine]
26 | < 1000 nM | CCCN(Cc1c(C(F)(F)F)nc2n1CCCN2c1c(C)cc(C)cc1C)CC(F)(F)C(F)(F)F [Example 80, (2,2,3,3,3-Pentafluoro-propyl)-propyl-[2-trifluoromethyl-8-(2,4,6-trimethyl-phenyl)-5,6,7,8-tetrahydro-imidazo[1,2-a]pyrimidin-3-ylmethyl]-amine]
